The values below come from patent publication US20220211731A1, “COMPOSITION FOR PROMOTING GLP-1 SECRETION” (SUNTORY HOLDINGS LIMITED, priority 2019, published 2022).

For series [1], the system named is H716. The series can be described thus: GLP-1 secretion amount of sweeteners, Experimental Example 1. The series is classed as cell-based, human. Conditions: H716, stock solution added, quantitation after further 24 hours, PBS as negative control, FIG. 1. How it is done: RebA, RebB, RebM, RebN, RebD, RebC, MogV, and stevioside were examined for their GLP-1 secretion-promoting effects. Specifically, the amount of GLP-1 secretion was measured by the following procedures.
Each test substance B, C, D, E, F, G, I, or J vas dissolved in PBS (Thermo Fisher Scientific Inc.) (Cat. No. 14190250) to obtain a stock solution. The concentration of the stock solution is shown below:
B (RebA); 5 mM, C (RebB); 1M, D (RebM); 2.5 mM, E (RebN); 1M, F (RebD); 2.5 mM, G (RebC); 2.5 mM, I (MogV); 1M, J(stevioside);1M
H716 (ATCC) (Cat. No. ATCC® CCL-251) was cultured in RPMI 1640 (10% FBS ((Thermo Fisher Scientific Inc.) (Cat. No. 10439024), 1 mM Sodium Pyruvate) in an incubator at 37° C., 5% CO2.
The preculture was performed for 2 weeks, and the cells were sufficiently recovered, and then cell stocks were prepared.
Cells were seeded in 96-well plates at 2×10^5 cells/90 μL (high) per well (N=4). At this time, the content of FBS in the medium was lowered to 0.5% to suppress cell proliferation.
After 24 hours, the sample at the highest concentration (i.e., stock solution) was added by 10 each.
After further 24 hours, quantitation of GLP-1 was performed. Specific procedures were followed the user guide of Human GLP-1 (7-36 amide) immunoassay kit (Cat. No. AL359) (Lot number 2361115) provided by PerkinElmer, Inc. PBS was used as a negative control (no sample).

A short description of series [2]: Measurement of surface tension by plate method. Conditions: compared with other glycosides. In kind it is physicochemical. How it is done:
Surface tension Q is measured by a plate method. For example, a glycoside sweetener, which is a test substance, is added in an amount to have Brix 10 on a sucrose basis to prepare an aqueous solution. The surface tension of the prepared aqueous solution is measured by a plate method using an automatic surface tension meter (CBVP-Z type, manufactured by Kyowa Interface Science Co., Ltd).
Aqueous solutions containing RebA, RebD, and RebM (commercially available products) each were prepared. The contents of RebA, RebD, and RebM were aligned to Brix 10 on a sucrose basis. That is, the contents of RebA, RebD, and RebM were 333 ppm, 351 ppm, and 351 ppm, respectively. The surface tension of the obtained aqueous solution was measured by a plate method using an automatic surface tension meter (CBVP-Z type, manufactured by Kyowa Interface Science Co., Ltd). Water was used as a control and tested in the same manner.

The nature of series [3]: Distribution ratio between pure water and toluene. As to conditions: organic layer and aqueous layer could not be separated. In kind it is physicochemical. As to the method:
After each about 100 mL of pure water and toluene was charged into a separatory funnel, 30 mg of each steviol glycoside was added. The separatory funnel was sealed to avoid liquid leakage, and stirred with shaking using a shaker for about 30 minutes, and then allowed to stand. When the liquid layer was separated into two layers, the distribution ratio was measured by LCMS after sampling was performed from each layer.

A short description of series [4]: Dissolution of sample in 1% DMSO-containing PBS. In kind it is physicochemical. As to conditions: final concentration of 1.5 mM (#24). As to the method: To 20 mg of RebC, 21 μL of DMSO (manufactured by FUJIFILM Wako Pure Chemical Corporation, model number: 037-24053) was added. The mixture was then stirred by vortex and allowed to stand for several hours to obtain a stock solution having a RebC concentration of 1,000 mM. The obtained stock solution and PBS were used to prepare a 10 mM solution.
The 10 mM solution was diluted as needed with 1% DMSO-containing PBS to obtain Sample G-1 mM to Sample G-10 mM. The concentrations of RebC are described in Table 1.
For Sample B processed, final concentrations of 0.025 mM (#11) and 0.05 mM (#12) were added to the concentrations to be tested (0.1 to 2.5 mM).

For the compound `C[C@H](CC[C@@H](O[C@@H]1O[C@H](CO[C@@H]2O[C@H](CO)[C@@H](O)[C@H](O)[C@H]2O)[C@@H](O)[C@H](O)[C@H]1O[C@@H]1O[C@H](CO)[C@@H](O)[C@H](O)[C@H]1O)C(C)(C)O)[C@H]1CC[C@@]2(C)[C@@H]3CC=C4[C@@H](CC[C@H](O[C@@H]5O[C@H](CO[C@@H]6O[C@H](CO)[C@@H](O)[C@H](O)[C@H]6O)[C@@H](O)[C@H](O)[C@H]5O)C4(C)C)[C@]3(C)[C@H](O)C[C@]12C` [MogV, mogroside V], in series [1], the “amount of GLP-1 secretion compared with no sample” value (shortened to “amount … compared with no sample”) is “significantly larger amounts of GLP-1 secretion than no sample”.
`C=C1C[C@@]23CC[C@H]4[C@@](C)(CCC[C@@]4(C)C(=O)O[C@@H]4O[C@H](CO)[C@@H](O)[C@H](O)[C@H]4O)[C@@H]2CC[C@]1(O[C@@H]1O[C@H](CO)[C@@H](O)[C@H](O[C@@H]2O[C@H](CO)[C@@H](O)[C@H](O)[C@H]2O)[C@H]1O[C@@H]1O[C@H](CO)[C@@H](O)[C@H](O)[C@H]1O)C3` [RebA, Rebaudioside A]: in series [1], the “amount … compared with no sample” value is “significantly larger amounts of GLP-1 secretion than no sample”. Besides, the “surfactant effect (surface tension)” value in series [2] was “higher than that of other glycosides”. For the same compound, the “emulsification phenomenon when measuring the distribution ratio” value in series [3] is given as “had an emulsification phenomenon”.
`C=C1C[C@@]23CC[C@H]4[C@@](C)(CCC[C@@]4(C)C(=O)O[C@@H]4O[C@H](CO)[C@@H](O)[C@H](O)[C@H]4O)[C@@H]2CC[C@]1(O[C@@H]1O[C@H](CO)[C@@H](O)[C@H](O)[C@H]1O[C@@H]1O[C@H](CO)[C@@H](O)[C@H](O)[C@H]1O)C3` [stevioside, Stevioside]: the “amount … compared with no sample” value in series [1] is “significantly larger amounts of GLP-1 secretion than no sample”.
Still for that read-out and setting: as for rebaudioside B [RebB], the entry is “significantly larger amounts of GLP-1 secretion than no sample”.
In the case of rebaudioside C [RebC], the “amount … compared with no sample” value in series [1] is given as “significantly larger amounts of GLP-1 secretion than no sample”. In addition, the dissolution of sample entry in series [4] was “not able to be dissolved”.
